Assay [1] in a line: viability of HCT116 lacking mutant beta-catenin – cell-based, human colon tumor, dose response (AID 1045).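 Note: HCT116 colon tumor cells with beta catenin knocked out; cells exposed to compound for 60 hours.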 It is filed as functional.
Assay [2] in a line: viability of PTEN-deleted HCT116 cells – cell-based, HCT116 PTEN knockout, dose response (AID 1047).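 Note: HCT116 colon tumor cells with PTEN knocked out; cells exposed to compound for 60 hours before readout; potency for loss of cell viability measured by luminescence.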 It is filed as functional.
Assay [3] is described as follows: viability loss in HEK293T cells – cell-based, cherry-picks, cytotoxicity control for HIV Vif inhibitor project, dose response (AID 652208). It is filed as functional.
Assay [4] addresses SWI/SNF-related matrix-associated actin-dependent regulator of chromatin subfamily A member 2 (Homo sapiens, UniProt P51531). In words: Luminescence-based cell-based high throughput dose response assay to identify activators of the function of SWI/SNF related, matrix associated, actin dependent regulator of chromatin, subfamily a, member 2 (SMARCA2, BRM). It is filed as functional.

Assay [5] concerns the target Photoreceptor-specific nuclear receptor (Homo sapiens, UniProt Q9Y5X4). It is filed as functional, cell-based.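 Note: CHO-S cells with Gal4-NCOR and VP16-NR2E3 two-hybrid luciferase reporter.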
The target in assay [6] is T1, Heat shock factor protein 1 (Mus musculus, UniProt P38532).
T1 sequence (P38532 whole entry): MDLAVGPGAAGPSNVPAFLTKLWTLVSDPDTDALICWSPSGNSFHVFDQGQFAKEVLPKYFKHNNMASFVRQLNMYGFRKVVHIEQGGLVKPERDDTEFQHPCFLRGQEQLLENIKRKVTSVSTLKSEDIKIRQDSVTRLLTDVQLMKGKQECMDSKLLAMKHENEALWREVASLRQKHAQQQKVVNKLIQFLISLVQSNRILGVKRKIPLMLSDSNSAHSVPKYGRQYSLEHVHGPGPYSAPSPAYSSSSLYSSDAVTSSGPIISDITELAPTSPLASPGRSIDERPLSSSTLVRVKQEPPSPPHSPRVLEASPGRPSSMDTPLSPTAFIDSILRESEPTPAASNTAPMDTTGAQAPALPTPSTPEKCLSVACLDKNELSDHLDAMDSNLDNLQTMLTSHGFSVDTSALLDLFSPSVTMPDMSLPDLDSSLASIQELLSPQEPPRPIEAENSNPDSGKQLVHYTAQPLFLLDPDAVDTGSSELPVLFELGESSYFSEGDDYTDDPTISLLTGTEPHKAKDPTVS
Put plainly: enhancement of HSF1-driven luciferase signal – cell-based, NIH3T3, luminescence, dose retest, confirmation (AID 435004).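 Note: stress induced by proteasome inhibitor MG132 added 30 min after compound; luciferase reporter driven by HSF1 response element in NIH3T3 cells; actives raise luminescence as potentiators of the MG132 stress response.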 It is filed as functional.

A short description of assay [7]: Counterscreen for activators of the function of SWI/SNF related, matrix associated, actin dependent regulator of chromatin, subfamily a, member 2 (SMARCA2, BRM): Luminescence-based cell-based high throughput dose response assay to identify non-selective compounds using the VP16 reporter assay. It is filed as functional. (Counterscreens check selectivity or assay interference.)

Assay [8] in a line: HEK-293T viability loss after treatment – luminescence, T-cell screen hits, cytotoxicity control for TCR NF-kB inhibitor project, dose response (AID 489026).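 Note: cells exposed to compound about 14 hours before the viability readout.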 It is filed as functional, cell-based.
The next assay addresses fMet-Leu-Phe receptor (Homo sapiens, UniProt P21462). In words: formyl peptide receptor binders – dose response (AID 519). It is filed as functional.
Assay [9] in a line: optical artefact potency, substrate without enzyme – biochemical, fluorescence intensity, triplicate, artefact control for kallikrein-7 zymogen activator project, dose response (AID 720493).
The target in a further assay is Kallikrein-7 (Homo sapiens, UniProt P49862). Put plainly: Fluorescence Intensity-based biochemical primary high throughput dose response assay to identify activators of kallikrein-7 (K7) zymogen.
The target of another assay is Cytochrome P450 3A4 (Homo sapiens, UniProt P08684).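 Note: CYP3A4 tested as one member of a cytochrome P450 panel screen.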
Assay [10] addresses NAD-dependent protein deacylase sirtuin-5, mitochondrial (Homo sapiens, UniProt Q9NXA8). In words: sirtuin-5 deacylation blockers, concentration series – biochemical, fluorescence imaging, cherry-pick, set 5, dose response (AID 720591).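 Note: desuccinylation of succinyl peptide AMC substrate read as fluorescence after trypsin release; potency of inhibitors that lower fluorescence and may act on trypsin instead.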
Assay [11] can be described thus: cells. It is filed as functional, cell-based.
Assay [12] deals with T2, Trace amine-associated receptor 1 (Homo sapiens, UniProt Q96RJ0).
T2 sequence (Q96RJ0 whole entry): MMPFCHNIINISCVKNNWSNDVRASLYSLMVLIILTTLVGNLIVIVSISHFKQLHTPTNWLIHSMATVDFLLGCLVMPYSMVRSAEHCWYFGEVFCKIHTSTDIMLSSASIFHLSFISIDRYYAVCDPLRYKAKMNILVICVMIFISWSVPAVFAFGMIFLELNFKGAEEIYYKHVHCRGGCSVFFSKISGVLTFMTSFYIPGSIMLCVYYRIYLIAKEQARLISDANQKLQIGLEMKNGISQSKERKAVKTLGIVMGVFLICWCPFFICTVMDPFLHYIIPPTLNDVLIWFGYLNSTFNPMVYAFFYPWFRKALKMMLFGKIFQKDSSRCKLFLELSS
In words: Counterscreen for agonists of the human trace amine associated receptor 1 (hTAAR1): Fluorescence-based cell-based high throughput dose response assay to identify hTAAR1 agonist that also desensitize TAAR1 receptor response. It is filed as functional.

Assay [13] deals with T2, Trace amine-associated receptor 1. Put plainly: Fluorescence-based cell-based high throughput dose response assay to identify agonists of the human trace amine associated receptor 1 (TAAR1). It is filed as functional.
Assay [14] concerns the target T3, Short transient receptor potential channel 4 (Mus musculus, UniProt Q9QUQ5).
T3 sequence (Q9QUQ5 whole entry): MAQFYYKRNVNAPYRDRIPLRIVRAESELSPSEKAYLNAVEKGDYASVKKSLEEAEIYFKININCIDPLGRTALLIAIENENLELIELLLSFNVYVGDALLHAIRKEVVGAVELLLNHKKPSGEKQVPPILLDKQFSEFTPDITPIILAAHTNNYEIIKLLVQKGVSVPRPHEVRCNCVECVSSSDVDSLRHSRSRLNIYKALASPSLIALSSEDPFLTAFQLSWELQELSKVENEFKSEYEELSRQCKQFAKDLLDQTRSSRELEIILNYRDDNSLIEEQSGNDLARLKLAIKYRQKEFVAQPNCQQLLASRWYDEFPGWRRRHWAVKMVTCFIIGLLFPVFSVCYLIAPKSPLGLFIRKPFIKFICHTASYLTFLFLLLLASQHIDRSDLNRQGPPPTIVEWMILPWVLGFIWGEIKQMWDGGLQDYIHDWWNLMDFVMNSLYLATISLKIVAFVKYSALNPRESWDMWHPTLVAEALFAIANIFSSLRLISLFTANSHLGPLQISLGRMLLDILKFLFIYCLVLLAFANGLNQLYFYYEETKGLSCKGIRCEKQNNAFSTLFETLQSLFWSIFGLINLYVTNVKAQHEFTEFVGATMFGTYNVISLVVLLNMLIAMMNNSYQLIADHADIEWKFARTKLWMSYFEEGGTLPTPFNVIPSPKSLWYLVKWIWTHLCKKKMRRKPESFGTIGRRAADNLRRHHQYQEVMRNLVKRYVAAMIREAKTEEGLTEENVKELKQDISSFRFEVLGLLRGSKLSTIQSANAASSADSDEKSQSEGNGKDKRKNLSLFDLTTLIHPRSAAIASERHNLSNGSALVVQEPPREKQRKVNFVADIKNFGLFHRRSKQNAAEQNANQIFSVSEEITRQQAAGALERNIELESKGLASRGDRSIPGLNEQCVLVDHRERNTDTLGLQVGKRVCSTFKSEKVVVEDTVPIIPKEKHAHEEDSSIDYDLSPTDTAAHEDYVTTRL
In words: calcium entry via TRPC4 opening agents – cell-based, HEK293 TRPC4/mu-opioid, Fluo-4 calcium, dose response (AID 434937). It is filed as functional.

Assay [15] deals with T3, Short transient receptor potential channel 4. Put plainly: block of DAMGO-driven TRPC4 calcium entry – cell-based, HEK293 TRPC4/mu-opioid, Fluo-4 calcium, dose response (AID 434942).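 Note: potency of inhibitors blocking the TRPC4 calcium response.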 It is filed as functional.
A short description of assay [16]: cells. It is filed as functional, cell-based. The source holds these as a separate data set.
The target of assay [17] is Disintegrin and metalloproteinase domain-containing protein 17 (Homo sapiens, UniProt P78536). In words: exosite inhibitors of ADAM17, dose response, biochemical (AID 743260).
The nature of assay [18]: inhibition of ADAM10 peptide cleavage – biochemical, FRET peptide substrate, recombinant human ADAM10, selectivity assay for ADAM17 exosite inhibitor project, dose response (AID 743259).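 Note: ADAM10 enzyme cleaving a FRET peptide substrate.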
Assay [19] concerns the target T2, Trace amine-associated receptor 1. Put plainly: Fluorescence-based cell-based high throughput dose response assay to identify antagonists of the human trace amine associated receptor 1 (TAAR1). It is filed as functional.
Assay [20] has the same target. Put plainly: Counterscreen for antagonists of the human trace amine associated receptor 1 (hTAAR1): Fluorescence-based cell-based high throughput dose response assay to identify TAAR1 Agonists. It is filed as functional.
Assay [21] is described as follows: Counterscreen for antagonists of the human trace amine associated receptor 1 (hTAAR1): Fluorescence-based cell-based high throughput dose response assay to identify nonselective Ga16 antagonists. It is filed as functional.
A short description of assay [22]: Counterscreen for […] of the human trace amine associated receptor 1 (TAAR1): Fluorescence-based cell-based high throughput dose response assay to identify nonselective Ga16 agonists. It is filed as functional.

SMILES strings stand for the structures. Active and inactive are the calls of the source.

NAD-dependent protein deacylase sirtuin-5, mitochondrial, sequence (Q9NXA8 whole entry): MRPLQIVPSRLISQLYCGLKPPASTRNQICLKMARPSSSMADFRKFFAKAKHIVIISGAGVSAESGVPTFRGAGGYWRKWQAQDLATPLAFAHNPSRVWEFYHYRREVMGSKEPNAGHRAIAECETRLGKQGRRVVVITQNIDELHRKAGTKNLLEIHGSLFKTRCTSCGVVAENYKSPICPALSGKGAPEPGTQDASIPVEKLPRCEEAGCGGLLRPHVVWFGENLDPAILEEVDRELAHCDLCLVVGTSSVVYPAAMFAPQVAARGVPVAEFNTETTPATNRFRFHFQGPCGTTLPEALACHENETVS
Kallikrein-7, sequence (P49862 whole entry): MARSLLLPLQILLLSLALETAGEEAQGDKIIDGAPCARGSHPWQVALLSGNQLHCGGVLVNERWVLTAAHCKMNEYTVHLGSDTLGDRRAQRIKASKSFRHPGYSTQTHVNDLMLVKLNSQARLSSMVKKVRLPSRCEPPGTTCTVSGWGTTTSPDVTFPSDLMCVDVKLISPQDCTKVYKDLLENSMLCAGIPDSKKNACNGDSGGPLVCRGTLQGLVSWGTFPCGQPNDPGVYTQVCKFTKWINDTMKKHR
Photoreceptor-specific nuclear receptor, sequence (Q9Y5X4 whole entry, the tested form may be a part): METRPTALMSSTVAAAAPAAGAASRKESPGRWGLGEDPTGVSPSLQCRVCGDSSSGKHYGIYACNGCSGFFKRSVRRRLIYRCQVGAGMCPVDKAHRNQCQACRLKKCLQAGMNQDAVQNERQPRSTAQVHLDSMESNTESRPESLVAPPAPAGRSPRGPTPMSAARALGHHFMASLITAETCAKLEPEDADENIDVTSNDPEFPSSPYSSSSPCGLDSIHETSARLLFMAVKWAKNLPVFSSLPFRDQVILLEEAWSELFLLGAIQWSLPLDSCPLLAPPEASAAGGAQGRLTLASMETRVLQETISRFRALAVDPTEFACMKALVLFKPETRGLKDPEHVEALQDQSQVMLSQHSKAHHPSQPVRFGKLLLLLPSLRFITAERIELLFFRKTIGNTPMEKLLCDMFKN
Cytochrome P450 3A4, sequence (P08684 whole entry): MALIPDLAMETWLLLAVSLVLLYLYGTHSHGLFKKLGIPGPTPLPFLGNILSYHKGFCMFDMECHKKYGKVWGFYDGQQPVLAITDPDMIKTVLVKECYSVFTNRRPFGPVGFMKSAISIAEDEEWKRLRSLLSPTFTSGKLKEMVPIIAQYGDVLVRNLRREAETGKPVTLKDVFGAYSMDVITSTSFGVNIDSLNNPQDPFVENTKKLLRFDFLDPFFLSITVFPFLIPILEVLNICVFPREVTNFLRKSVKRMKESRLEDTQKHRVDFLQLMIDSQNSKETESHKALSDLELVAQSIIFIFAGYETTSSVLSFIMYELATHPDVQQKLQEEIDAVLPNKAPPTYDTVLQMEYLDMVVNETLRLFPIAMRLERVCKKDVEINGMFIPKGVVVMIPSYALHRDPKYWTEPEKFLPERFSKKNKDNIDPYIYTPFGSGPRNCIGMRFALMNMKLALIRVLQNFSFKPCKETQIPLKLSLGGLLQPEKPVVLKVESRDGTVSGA
Disintegrin and metalloproteinase domain-containing protein 17, sequence (P78536 whole entry, the tested form may be a part): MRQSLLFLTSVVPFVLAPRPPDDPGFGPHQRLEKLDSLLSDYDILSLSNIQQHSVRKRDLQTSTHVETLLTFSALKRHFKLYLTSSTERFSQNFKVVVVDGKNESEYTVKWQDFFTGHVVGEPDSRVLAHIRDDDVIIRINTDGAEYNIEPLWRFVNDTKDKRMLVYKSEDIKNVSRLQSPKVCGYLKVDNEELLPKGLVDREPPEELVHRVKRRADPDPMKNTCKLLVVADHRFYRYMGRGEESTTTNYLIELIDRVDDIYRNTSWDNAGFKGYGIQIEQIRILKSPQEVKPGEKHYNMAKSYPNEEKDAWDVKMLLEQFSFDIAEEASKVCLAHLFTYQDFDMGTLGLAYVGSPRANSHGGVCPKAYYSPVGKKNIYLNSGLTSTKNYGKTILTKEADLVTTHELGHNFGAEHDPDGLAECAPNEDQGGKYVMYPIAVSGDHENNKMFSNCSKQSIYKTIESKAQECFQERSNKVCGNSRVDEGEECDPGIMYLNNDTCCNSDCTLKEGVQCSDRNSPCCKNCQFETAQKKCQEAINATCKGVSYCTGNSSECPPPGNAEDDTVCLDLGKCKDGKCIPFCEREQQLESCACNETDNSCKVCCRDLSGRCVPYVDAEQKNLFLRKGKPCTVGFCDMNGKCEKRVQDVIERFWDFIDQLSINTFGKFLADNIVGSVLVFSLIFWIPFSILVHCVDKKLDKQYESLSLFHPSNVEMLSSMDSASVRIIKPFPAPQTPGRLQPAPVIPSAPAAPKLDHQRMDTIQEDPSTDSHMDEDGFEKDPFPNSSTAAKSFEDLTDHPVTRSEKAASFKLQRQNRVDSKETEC
fMet-Leu-Phe receptor, sequence (P21462 whole entry): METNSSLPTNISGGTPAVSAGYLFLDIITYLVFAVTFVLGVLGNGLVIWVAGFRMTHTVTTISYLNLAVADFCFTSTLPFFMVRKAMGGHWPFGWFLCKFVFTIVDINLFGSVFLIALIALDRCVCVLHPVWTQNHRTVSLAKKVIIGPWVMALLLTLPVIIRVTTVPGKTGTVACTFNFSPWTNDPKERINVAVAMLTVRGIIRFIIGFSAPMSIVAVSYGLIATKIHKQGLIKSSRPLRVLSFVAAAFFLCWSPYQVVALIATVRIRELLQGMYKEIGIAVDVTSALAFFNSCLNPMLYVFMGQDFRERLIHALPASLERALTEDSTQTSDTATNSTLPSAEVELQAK
SWI/SNF-related matrix-associated actin-dependent regulator of chromatin subfamily A member 2, sequence (P51531 whole entry): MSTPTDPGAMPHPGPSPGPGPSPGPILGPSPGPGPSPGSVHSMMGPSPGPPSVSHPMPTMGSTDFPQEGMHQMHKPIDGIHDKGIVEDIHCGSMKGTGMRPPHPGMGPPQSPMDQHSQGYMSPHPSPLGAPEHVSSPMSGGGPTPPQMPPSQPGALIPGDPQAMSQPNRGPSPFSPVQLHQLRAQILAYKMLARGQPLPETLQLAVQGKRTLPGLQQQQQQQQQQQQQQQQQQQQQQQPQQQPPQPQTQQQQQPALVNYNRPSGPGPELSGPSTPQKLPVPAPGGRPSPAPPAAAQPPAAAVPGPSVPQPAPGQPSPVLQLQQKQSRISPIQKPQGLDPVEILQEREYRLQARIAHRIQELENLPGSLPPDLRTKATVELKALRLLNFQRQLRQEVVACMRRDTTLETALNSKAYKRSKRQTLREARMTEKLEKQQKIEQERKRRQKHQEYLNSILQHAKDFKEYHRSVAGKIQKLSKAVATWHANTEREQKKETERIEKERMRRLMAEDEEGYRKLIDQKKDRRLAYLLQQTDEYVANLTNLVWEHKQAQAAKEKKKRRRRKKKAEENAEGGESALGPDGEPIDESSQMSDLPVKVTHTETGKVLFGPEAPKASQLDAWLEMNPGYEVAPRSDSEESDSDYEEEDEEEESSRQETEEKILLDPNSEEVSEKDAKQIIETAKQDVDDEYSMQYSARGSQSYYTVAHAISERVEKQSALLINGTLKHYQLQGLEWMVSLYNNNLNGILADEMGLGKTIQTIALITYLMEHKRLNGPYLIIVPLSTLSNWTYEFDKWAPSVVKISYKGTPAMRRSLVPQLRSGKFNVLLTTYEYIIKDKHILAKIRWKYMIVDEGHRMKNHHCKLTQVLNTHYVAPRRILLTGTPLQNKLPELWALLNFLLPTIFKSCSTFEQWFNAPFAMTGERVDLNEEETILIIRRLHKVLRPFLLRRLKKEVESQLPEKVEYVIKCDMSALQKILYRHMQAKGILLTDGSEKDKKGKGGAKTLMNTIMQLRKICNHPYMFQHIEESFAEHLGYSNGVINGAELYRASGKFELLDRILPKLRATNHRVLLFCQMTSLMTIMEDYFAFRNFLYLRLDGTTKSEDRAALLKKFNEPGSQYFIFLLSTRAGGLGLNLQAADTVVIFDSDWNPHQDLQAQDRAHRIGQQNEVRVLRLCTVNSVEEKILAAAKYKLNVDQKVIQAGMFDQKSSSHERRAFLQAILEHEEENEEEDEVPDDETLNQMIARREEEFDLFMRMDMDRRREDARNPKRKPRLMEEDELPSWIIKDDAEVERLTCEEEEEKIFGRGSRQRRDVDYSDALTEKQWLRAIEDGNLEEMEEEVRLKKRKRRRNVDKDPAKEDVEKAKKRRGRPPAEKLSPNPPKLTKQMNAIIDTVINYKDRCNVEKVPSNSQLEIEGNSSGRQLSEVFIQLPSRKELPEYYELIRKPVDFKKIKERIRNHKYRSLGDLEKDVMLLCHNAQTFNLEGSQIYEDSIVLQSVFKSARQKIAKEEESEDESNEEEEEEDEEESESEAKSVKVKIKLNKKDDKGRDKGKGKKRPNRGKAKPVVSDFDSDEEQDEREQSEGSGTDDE

For the compound `Cc1cc(NC(=O)CSc2nc3c(sc4ccccc43)c(=O)n2CCCN2CCOCC2)[nH]n1`, the EC50 (usually the concentration that produces a half-maximal response) in assay [1] is 285 µM (active); in assay [2], 100 µM (active); in [4] it was > 91.2 µM (inactive); in assay [6], 37.9 µM (active); in assay [7], > 91.2 µM (inactive). Further, the AC50 (in general, the midpoint of the concentration-response curve, whichever way the signal moves) in assay [3] is > 52 µM (inactive). Besides, the IC50 – broadly, the concentration that gives 50% inhibition – was 0.783 µM (active) in assay [5] and > 80 µM (inactive) in assay [8].
For the compound `COC(=O)c1[nH]c(C)c(C(=O)C2=C(O)C(=O)N(CCN3CCOCC3)C2c2cccs2)c1C` (stereo not given), the Ki (in general, the equilibrium dissociation constant of an inhibitor or competing ligand from its target) at fMet-Leu-Phe receptor was 5 µM (active).
`COc1ccc(-c2coc3c(CN4CCCCC4C)c(O)ccc3c2=O)cc1` (stereo not given): the EC50 (in assay [9]; at Kallikrein-7) was > 2.58 µM (active) each time.
Regarding `CCc1ccc(N(C(=O)c2csnn2)C(C(=O)NCc2ccccc2)c2ccco2)cc1` (stereo not given), the AC50 on Cytochrome P450 3A4 was 1.41 µM (inconclusive); in assay [10] it was > 30 µM (inactive).
Consider `OC(CNC1CCCc2ccccc21)COc1c(Cl)cccc1Cl` (stereo not given), for which the results for the IC50 (in “cells [11]”; in assay [12]) were 13.9 µM (inactive) and 8.84 µM (active), respectively. Moreover, the concentration giving a half-maximal response (EC50) in assay [13] is 1.57 µM (active); in assay [14], 5.96 µM (active); in [15], 1.33 µM (active); in “cells [16]” it was 11.7 µM (inactive).
`Cc1cc(Nc2ccc(Cl)cc2)n(-c2cccc(Cl)c2)n1`: the IC50 is > 69.5 µM (inactive) in assay [17] and 21.3 µM (inactive) in assay [18].
As for `Cc1ccc(CSCC(=O)Nc2cc(S(=O)(=O)N3CCOCC3)ccc2OCC(F)(F)F)cc1`, the values for the IC50 in assay [19] and in [21] were 1.25 µM (active) and > 29.9 µM (inactive), respectively. Also, the EC50 in assay [20] and in assay [22] was > 29.9 µM (inactive) each time.
